Measurements taken from paper PMC3834177 (Cancer Chemotherapy and Pharmacology, 2013).
Values joined by “and” are separate entries in the source; they are usually repeats but may differ in a detail not shown here. Identical values can stand only once. “Also recorded” adds a separate entry of the source.

Assays:
[1] = Midostaurin PK when administered with ketoconazole; conditions: for AUC(0-inf): AUC0–inf; for AUC(0-inf) / Cmax: adjusted geometric mean; for Cmax: C max; for half-life: t 1/2, adjusted geometric mean
Protocol: According to the US Food and Drug Administration, ketoconazole 400 mg once daily is the recommended dose to evaluate DDIs involving CYP3A4 inhibition. [drawing 1]
(§1) Adverse events (AEs) were recorded during the study and up to 1 month (28 days) after the end of study. Volunteers remained at the clinic until AEs were common toxicity criteria (CTC) grade ≤1.
A point estimate and the corresponding 90 % CI for the treatment effect were calculated for the test treatment compared with the reference. These were anti-logged to obtain the point estimate and the 90 % CI for the geometric mean ratio (GMR) on the untransformed scale. […] All ANOVAs were performed using SAS software (SAS Institute Inc., Cary, NC, USA).
(§2) The concentration of ketoconazole in plasma was assessed using a validated LC–MS/MS assay with an LLOQ of 50.0 ng/mL (WuXi Pharmatech Co, Ltd, China). The concentration of rifampicin in plasma was measured using a validated LC–MS/MS assay with an LLOQ of 5.0 ng/mL (SGS, Cephac Europe, SAS). Plasma concentrations of midazolam and its metabolite 1′-hydroxymidazolam, which is generated by CYP3A4 and CYP3A5 in humans, were measured using a validated LC–MS/MS assay with an LLOQ of ≈0.100 ng/mL (SGS, Cephac Europe, SAS). The plasma concentration of 4β-hydroxycholesterol was measured using a validated LC–MS/MS assay with an LLOQ of 3.0 ng/mL (SGS, Cephac Europe, SAS). The concentrations of 6β-hydroxycortisol and cortisol in urine were determined using validated LC–MS/MS assays with an LLOQ of 10.0 ng/mL for 6β-hydroxycortisol and 1.0 ng/mL for cortisol. The ratio of 6β-hydroxycortisol to cortisol was subsequently calculated (SGS, Cephac Europe, SAS). See Supplementary Table 2 for detailed bioanalytical methods for all 3 studies.

[2] = Midostaurin PK when administered with rifampicin; conditions: for AUC(0-inf) / AUC(0-t) / Cmax / half-life: human, oral; for AUC(0-inf): AUC0–inf; for AUC(0-inf) / AUC(0-t) / Cmax: adjusted geometric mean; for AUC(0-t): AUC0–last; for Cmax: C max; for half-life: t 1/2, adjusted geometric mean
Protocol: These endogenous molecules served as exploratory biomarkers for CYP3A4 activity in vivo [21, 22].
A point estimate and the corresponding 90 % CI for the treatment effect (test vs reference) were calculated. These were anti-logged to obtain the GMR and respective 90 % CI. […] The median difference was estimated with the Hodges–Lehmann estimator and its respective exact two-sided 90 % CI. All formal comparative statistical analyses were performed using SAS software.
as §2

CYP3A4 [3] = experiment: CYP3A4 activity in vivo in midazolam study (probe and endogenous biomarkers); parameters: species or system human
Protocol: Both inhibition and induction of midazolam clearance were investigated.
Similarly, blood and urine samples were taken on days 1, 3, 6, 7, 8, and 9 to measure the levels of 4β-hydroxycholesterol in plasma and the 6β-hydroxycortisol/cortisol ratio in urine, markers of CYP3A4 activity.
as §2

[4] = Safety and tolerability, ketoconazole study; assay type: in vivo, human
Protocol: as §1

[5] = system: human serum protein α1-acid glycoprotein (AAG); parameters: method as in PMID 11230495; conditions: cited from earlier work
patients with ASM = conditions: cited from earlier work
CYP3A4 [6] = conditions: patients with ASM, 1–2 months of daily midostaurin dosing; cited from earlier work
[7] = cited from earlier work
[8] = Safety and tolerability, rifampicin study
[9] = human, plasma, oral, plasma, Ketoconazole + midostaurin arm, n = 18
[10] = human, plasma, oral, plasma, Placebo + midostaurin arm, ketoconazole study, n = 18
[11] = midostaurin 50 mg single dose, ketoconazole 400 mg daily
[12] = plasma, plasma, Placebo + midostaurin arm, rifampicin study, n = 20
[13] = plasma, plasma, Rifampicin + midostaurin arm, n = 20
[14] = ketoconazole study, both arms pooled (N = 47)
[15] = ketoconazole study: Mido 50 mg (n = 20) or Mido 50 mg + Keto 400 mg (n = 27)
[16] = phase II, 100 mg twice daily, 26 patients with ASM
[17] = stage 1 analysis, global phase II study, ASM or mast cell leukemia
[18] = rifampicin study: Mido 50 mg + Rifa 600 mg (n = 25) or Mido 50 mg (n = 21)

## CO[C@@H]1[C@H](N(C)C(=O)c2ccccc2)C[C@H]2O[C@]1(C)n1c3ccccc3c3c4c(c5c6ccccc6n2c5c31)C(=O)NC4 [Midostaurin]
[1]; 1 − AUCinf (without ketoconazole)/AUCinf (with ketoconazole)
  fraction of midostaurin metabolized by CYP3A4 (FmCYP3A4): 91%
[1]; co-administration with ketoconazole
  DDI classification (PhRMA proposal for drugs biotransformed via CYP3A4): strong
[1]; compared with placebo
  elimination t 1/2 in the presence of ketoconazole: prolonged
[1]; human, plasma, oral, plasma, Ketoconazole + midostaurin arm (midostaurin 50 mg once, ketoconazole 400 mg daily), n = 18
  AUC(0-inf): 206000 ng·h/mL
[1]; human, plasma, oral, plasma, Placebo + midostaurin arm (midostaurin 50 mg once), ketoconazole study, n = 18
  AUC(0-inf): 19800 ng·h/mL
[1]; [9]
  Cmax: 2890 ng/mL
  half-life: 90.6 h
[1]; [10]
  Cmax: 1590 ng/mL
  half-life: 23.3 h
[1]; human, plasma, oral, t max, median, plasma, Ketoconazole + midostaurin arm, n = 18
  Tmax: 1.5 h
[1]; ketoconazole + midostaurin vs placebo + midostaurin
  t max, Hodges–Lehmann estimate of median difference (90 % distribution-free CI): 0.5 (0, 0.5) h
[1]; [11]
  increase in AUC (exposure) with ketoconazole compared with placebo: more than tenfold; also recorded: tenfold
  increase in C max with ketoconazole compared with placebo: ≈ 1.8 fold and 1.8 fold
[2]; compared with midostaurin administered alone
  increase in geometric mean of apparent clearance with rifampicin: 16.9 fold
[2]; plasma, plasma, Placebo + midostaurin arm (midostaurin 50 mg once), rifampicin study, n = 20
  AUC(0-inf): 22800 ng·h/mL
[2]; plasma, plasma, Rifampicin + midostaurin arm (midostaurin 50 mg once, rifampicin 600 mg daily), n = 20
  AUC(0-inf): 1350 ng·h/mL
[2]; [12]
  AUC(0-t): 22000 ng·h/mL
  Cmax: 1620 ng/mL
  half-life: 23 h
[2]; [13]
  AUC(0-t): 1230 ng·h/mL
  Cmax: 440 ng/mL
  half-life: 5.14 h
[2]; midostaurin 50 mg single dose, rifampicin 600 mg daily
  decrease in exposure by induction of CYP3A4 by rifampicin: more than tenfold
[2]; plasma, Placebo + midostaurin arm, rifampicin study, n = 20
  t max, median: 1.02 h
CYP3A4 [3]; humans, single dose 100 mg and 50 mg twice daily
  inhibition or induction of CYP3A4 in vivo: neither an inhibitor nor inducer; also recorded: neither a CYP3A4 inhibitor nor a CYP3A4 inducer
CYP3A4 [3]; single or multiple doses of midostaurin
  effect on concentrations of midazolam and 1′-hydroxymidazolam: did not appreciably affect
[4]; all 3 studies, single agent or in combination, healthy volunteers
  tolerability: generally well tolerated
[4]; ketoconazole study, both arms pooled
  intensity of AEs: mild
[4]; [14]
  participants who discontinued the study because of AEs: 15%
  serious AEs: no serious AEs
[4]; [15]
  Adverse event: Abdominal distension: 0 n (%)
  Adverse event: Any preferred term: 13 (65.0) n (%)
  Adverse event: Back pain: 0 n (%)
  Adverse event: Chromaturia: 0 n (%)
  Adverse event: Cough: 0 n (%)
  Adverse event: Diarrhea: 4 (20.0) n (%)
  Adverse event: Discolored feces: 0 n (%)
  Adverse event: Dizziness: 5 (25.0) n (%)
  Adverse event: Dry skin: 0 n (%)
  Adverse event: Dyspepsia: 0 n (%)
  Adverse event: Feeling cold: 2 (10.0) n (%)
  Adverse event: Feeling hot: 0 n (%)
  Adverse event: Flatulence: 0 n (%)
  Adverse event: Headache: 2 (10.0) n (%)
  Adverse event: Hot flush: 0 n (%)
  Adverse event: Nasopharyngitis: 0 n (%)
  Adverse event: Nausea: 7 (35.0) n (%)
  Adverse event: Palpitations: 0 n (%)
  Adverse event: Pharyngolaryngeal pain: 0 n (%)
  Adverse event: Restlessness: 0 n (%)
  Adverse event: Rhinitis: 1 (5.0) n (%)
  Adverse event: Sleep disorder: 0 n (%)
  Adverse event: Somnolence: 0 n (%)
  Adverse event: Vomiting: 1 (5.0) n (%)
[5]
  bound to AAG: 88–98%
Patients with ASM; phase II investigator-initiated study, 100 mg twice daily, 26 patients with ASM
  response rate according to Valent criteria: 69%
Patients with ASM; [16]
  good partial responses (number of patients): 5
  incomplete remissions (number of patients): 6
  major responses (number of patients): 10
  minor partial responses (number of patients): 3
  pure clinical responses (number of patients): 4
Patients with ASM; [17]
  major response: 53%
  overall response rate: 60%
CYP3A4 [6]
  change in level of endogenous CYP3A4 biomarker 4-β-hydroxycholesterol in plasma: significant increase
[7]
  free midostaurin concentrations: 0.02 to 1 µM
  major pathway for elimination: Fecal excretion
[7]; daily oral dosing
  period of time-linear accumulation: 3 to 6 days
  time to new plateau of plasma concentrations: 2–3 weeks
[7]; healthy volunteers
  mean apparent volume of distribution: 111 L
[7]; human, in vivo, po
  time of peak plasma concentrations postdose: 1 to 3 h
[7]; single-dose administration
  dose proportionality of C max and AUC: increased proportionally with dose following single-dose administration of midostaurin between 25- and 50-mg doses but under proportionally between 50- and 100-mg doses
[8]; rifampicin study, by arm
  diarrhea: 33%
  nausea: 38%
  participants who experienced an AE: 62%
[8]; [18]
  Adverse event: Abdominal distension: 0 n (%)
  Adverse event: Any preferred term: 13 (61.9) n (%)
  Adverse event: Back pain: 1 (4.8) n (%)
  Adverse event: Chromaturia: 0 n (%)
  Adverse event: Cough: 0 n (%)
  Adverse event: Diarrhea: 7 (33.3) n (%)
  Adverse event: Discolored feces: 0 n (%)
  Adverse event: Dizziness: 0 n (%)
  Adverse event: Dry skin: 0 n (%)
  Adverse event: Dyspepsia: 0 n (%)
  Adverse event: Feeling cold: 0 n (%)
  Adverse event: Feeling hot: 0 n (%)
  Adverse event: Flatulence: 1 (4.8) n (%)
  Adverse event: Headache: 1 (4.8) n (%)
  Adverse event: Hot flush: 0 n (%)
  Adverse event: Nasopharyngitis: 2 (9.5) n (%)
  Adverse event: Nausea: 8 (38.1) n (%)
  Adverse event: Palpitations: 0 n (%)
  Adverse event: Pharyngolaryngeal pain: 0 n (%)
  Adverse event: Restlessness: 0 n (%)
  Adverse event: Rhinitis: 0 n (%)
  Adverse event: Sleep disorder: 0 n (%)
  Adverse event: Somnolence: 0 n (%)
  Adverse event: Vomiting: 1 (4.8) n (%)
